How the values were obtained:
[1] = Caco-2 permeability; format: in vitro ADME; settings: human, 10 μM of compound
Procedure: All in vitro absorption, distribution, metabolism, and excretion (ADME) studies were conducted by BioDuro-Sundia. […] Caco-2 permeability, human liver microsomal stability, and human plasma protein binding assays as well as liquid chromatography-mass spectrometry/mass spectrometry analyses were performed following standard protocols previously described in detail ([Kazakova et al, 2023]).

[2] = Escalating dose MTD study; format: in vivo; settings: daily doses increasing 50% each day from 5 mg/kg, B6 mice
Procedure: All animal studies were performed in accordance with the guidelines of the Institutional Animal Care and Use Committee at the Penn State College of Medicine (IACUC # PRAMS201145989). To determine the maximum tolerated dose (MTD) of 4-107, escalating and acute dose studies were performed. The escalating MTD study used an intra-animal design where each mouse received daily doses of 4-107 that increased 50% each day from a starting dose of 5 mg/kg. Six female C57BL/6J (B6) (The Jackson Laboratory; 000664) were administered 4-107 either orally via oral gavage or via intraperitoneal injection with 3 mice per group. The acute MTD study had groups of mice receive daily consistent doses of 4-107 i.p. Here, B6 mice were administered 4-107 at either 5 (n = 4; 2 males [M], 2 females [F]), 10 (n = 4; 2 M, 2 F), 15 (n = 5; all M), or 20 mg/kg (n = 5; all M). In both studies, 4-107 dissolved in DMSO was mixed into 30% propylene glycol, 5% Tween 80, and 65% of 5% dextrose in water (PTD [vehicle]) with a final DMSO concentration of ≤ 3%. […] BCS was determined by posture and prominence of skeletal features upon visual inspection and palpation, where BCS < 2 indicated a hunched posture and emaciation. […] The MTD was determined as the highest dose of 4-107 administered without mice reaching the toxicity endpoints.

[3] = biological target: T1, VPS4B (Homo sapiens, UniProt O75351); assay: VPS4B cellular thermal shift assay (CETSA); format: cell-based; design: endogenous in cells; host or cells: U2OS; settings: 2 μM 4-107, 1 hour, starved U2OS cells
T1 sequence (O75351 1-444): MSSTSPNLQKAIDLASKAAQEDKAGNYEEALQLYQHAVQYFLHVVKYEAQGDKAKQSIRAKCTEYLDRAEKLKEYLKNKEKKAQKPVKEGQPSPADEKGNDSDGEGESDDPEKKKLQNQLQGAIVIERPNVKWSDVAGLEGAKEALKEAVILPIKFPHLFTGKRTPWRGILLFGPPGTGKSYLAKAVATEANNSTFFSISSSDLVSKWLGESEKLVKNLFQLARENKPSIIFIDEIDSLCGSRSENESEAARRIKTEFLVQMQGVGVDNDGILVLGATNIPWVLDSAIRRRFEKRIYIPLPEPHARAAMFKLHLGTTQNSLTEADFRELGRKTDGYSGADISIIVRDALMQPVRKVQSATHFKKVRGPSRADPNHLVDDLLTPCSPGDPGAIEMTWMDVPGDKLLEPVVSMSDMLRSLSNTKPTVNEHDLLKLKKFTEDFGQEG
Procedure: The VPS4B CETSA was performed as previously described with modification ([Jafari et al, 2014]). In 10-cm dishes, near-confluent U2OS cells were rinsed with 1× DPBS and treated with the indicated compounds in acclimatized SM for 1 hour at 37 °C (0.1% DMSO). Cells were trypsinized, pelleted at 300 × g for 5 minutes, and washed with 1× PBS. After repeat pelleting at 300 × g for 5 minutes, the cells were resuspended in 1× PBS with protease inhibitor cocktail (1:250) and aliquoted into PCR strips with 20 μL per tube. PCR strips for each treatment were heated on a temperature gradient for 3 minutes using a thermal cycler (Bio-Rad Laboratories), followed by incubation at RT for 3 minutes. […] To normalize protein loading for SDS-PAGE, the soluble protein concentration of each 37 °C sample was quantified via the Pierce BCA assay ([…]), and a volume equal to 10 μg of protein was used for all samples from the same treatment. […] Signals were acquired with the Odyssey CLx (LI-COR) and quantified via densitometry using Image Studio version 6 (LI-COR). The remaining VPS4B levels were calculated by first obtaining the ratio of VPS4B:ACTB band intensities of each sample and then normalizing these ratios to that of the respective 37 °C sample. […]

Q: What does the source list for `COc1cccc2c(NCc3ccccc3)nc(NCc3ccccc3)nc12` [Compound 4-107, N^2,N^4-dibenzyl-8-methoxyquinazoline-2,4-diamine]?
A: Papp A→B at 10 μM [1]: 0.03 ×10⁻⁶ cm/s; Papp B→A at 10 μM [1]: 0.3 ×10⁻⁶ cm/s; efflux ratio at 10 μM [1]: 10.3; doses exhibiting toxicity, intraperitoneal route ([2]; i.p.): above 25 mg/kg; well tolerated dose, oral route ([2]; oral gavage, doses up to): approximately 90 mg/kg; decrease of VPS4B Tagg [3]: approximately 3 °C

Reference: PMC13095408, “DBeQ derivative targets vacuolar protein sorting 4 functions in cancer cells and suppresses tumor growth in mice” (The Journal of Pharmacology and Experimental Therapeutics, 2025)
